Reference: the supplement of paper PMC11616607

Key:
Assay in all cases: drug sensitivity score (DSS) from 5-point dose-response viability curve (DSS (area-under-curve based score)); higher = more sensitive (stronger growth inhibition or killing); extreme values may be limits of the assay
Conditions in all cases: exposure time: 72 h; concentration range: 5 concentrations over 10,000-fold range
[1] = test system: CAOV3
Procedure, shortened: (§1)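 Drug sensitivity scores were calculated in Breeze software for each cell line and drug pair; higher scores indicate more sensitivity. A score of zero indicates no response. The underlying assay used 384-well plates: drugs were placed by an Echo 550 acoustic dispenser at five concentrations spanning a 10,000-fold range, 1,500 ovarian cancer or normal ovarian cells were added per well, and cells were kept 3 days at 37°C, 5% CO2. Viability was then measured with CellTiter-Glo luminescence on a PHERAstar FS.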

[2] = test system: COV318
Procedure, shortened: as §1

[3] = test system: COV362
Procedure, shortened: as §1

[4] = test system: HOSE1C
Procedure, shortened: as §1

[5] = test system: HOSE2C
Procedure, shortened: as §1

[6] = test system: JHOS2
Procedure, shortened: as §1

[7] = test system: Kuramochi
Procedure, shortened: as §1

[8] = test system: OV90
Procedure, shortened: as §1

[9] = test system: OVCAR4
Procedure, shortened: as §1

[10] = test system: OVCAR5
Procedure, shortened: as §1

[11] = test system: OVCAR8
Procedure, shortened: as §1

[12] = test system: Ovsaho
Procedure, shortened: as §1

| SMILES | drug sensitivity score [1] | drug sensitivity score [2] | drug sensitivity score [3] | drug sensitivity score [4] | drug sensitivity score [5] | drug sensitivity score [6] | drug sensitivity score [7] | drug sensitivity score [8] | drug sensitivity score [9] | drug sensitivity score [10] | drug sensitivity score [11] | drug sensitivity score [12] |
| --- | --- | --- | --- | --- | --- | --- | --- | --- | --- | --- | --- | --- |
| CS(=O)(=O)c1ccc(-c2cnc(N)c(C(=O)Nc3ccccc3)n2)cc1 [VE-821] | 0 | 0 | 0 | 4 | 1.7 | 0 | 0 | 0 | 0 | 0 | 0 | 1.2 |
| O=C(O)CC1CC(c2ccccc2)=NO1 (configuration not stated) [VGX-1027] | 0 | 0 | 0 | 0 | 0 | 0 | 0 | 0 | 0 | 0 | 0 | 0 |
| C=CC(=O)N1CC/C(=C\c2ccc(F)c([N+](=O)[O-])c2)C(=O)/C(=C/c2ccc(F)c([N+](=O)[O-])c2)C1 [VLX1570] | 18.7 | 12.2 | 9.4 | 23.3 | 21.4 | 17.5 | 18 | 16.8 | 18.7 | 17.1 | 26.8 | 25 |
| CNC(=O)c1ccccc1Nc1cc(Nc2ccc(N3CCOCC3)cc2OC)ncc1C(F)(F)F [VS-4718] | 6.1 | 5.6 | 4.1 | 3.6 | 6 | 5.5 | 11.6 | 9.2 | 6.8 | 8 | 4.4 | 11.4 |
| CCCC(CCC)C(=O)O [Valproic acid] | 0 | 0 | 0 | 0 | 0 | 0 | 0 | 0 | 0 | 0 | 0 | 0 |
| CCCCC(=O)OCC(=O)[C@]1(O)Cc2c(O)c3c(c(O)c2[C@@H](O[C@H]2C[C@H](NC(=O)C(F)(F)F)[C@H](O)[C@H](C)O2)C1)C(=O)c1c(OC)cccc1C3=O [Valrubicin] | 10.8 | 4.4 | 2.4 | 10.1 | 8.3 | 6.6 | 6.6 | 7.7 | 3.8 | 6.2 | 9.5 | 10.9 |
| COc1cc2/c(=N/c3ccc(Br)cc3F)nc[nH]c2cc1OCC1CCN(C)CC1 [Vandetanib] | 1.7 | 0.6 | 1.3 | 0 | 0 | 0.6 | 2.9 | 0 | 1.2 | 1.5 | 0 | 4.7 |
| CCc1c(C(=O)C(N)=O)c2c(OCC(=O)O)cccc2n1Cc1ccccc1 [Varespladib] | 0 | 0 | 0 | 0 | 0 | 0.1 | 0 | 0 | 0 | 0 | 0 | 0 |
| C[C@@H]1COC(Nc2ccc3ncnc(Nc4ccc(OCc5nccs5)c(Cl)c4)c3c2)=N1 [Varlitinib] | 3.2 | 0 | 0 | 0.4 | 0.2 | 0 | 0.4 | 0 | 1.9 | 4.1 | 5.4 | 0.3 |
| Clc1ccc(Nc2nnc(Cc3ccncc3)c3ccccc23)cc1 [Vatalanib] | 0 | 0 | 0 | 0 | 0 | 0 | 0 | 0 | 0 | 0 | 0 | 0.7 |
| C[C@]1(c2nc3c(C(N)=O)cccc3[nH]2)CCCN1 [Veliparib] | 0 | 0 | 0 | 0 | 0 | 0 | 0 | 0.7 | 0 | 1.3 | 0.2 | 0.4 |
| CCCS(=O)(=O)Nc1ccc(F)c(C(=O)c2c[nH]c3ncc(-c4ccc(Cl)cc4)cc23)c1F [Vemurafenib] | 0 | 0 | 0 | 0.4 | 1.1 | 0 | 0.3 | 0 | 0 | 0.5 | 0.5 | 0 |
| CC1(C)CCC(CN2CCN(c3ccc(C(=O)NS(=O)(=O)c4ccc(NCC5CCOCC5)c([N+](=O)[O-])c4)c(Oc4cnc5[nH]ccc5c4)c3)CC2)=C(c2ccc(Cl)cc2)C1 [Venetoclax] | 0 | 0 | 0 | 0 | 0 | 2.8 | 0 | 0 | 0 | 0 | 0 | 0 |
| O=C(/C=C\n1cnc(-c2cc(C(F)(F)F)cc(C(F)(F)F)c2)n1)NNc1ccccn1 [Verdinexor] | 9.2 | 3.6 | 4.7 | 22.2 | 6.1 | 7 | 3.1 | 5.1 | 5.4 | 7.5 | 10.9 | 7.6 |
| CCCCOc1nc(N)c2c(n1)N(Cc1cccc(CN3CCCC3)c1)CC(=O)N2 [Vesatolimod] | 0 | 0 | 0 | 0 | 0 | 0 | 1 | 0 | 0.4 | 0 | 0 | 0 |
| COc1cccc(-c2ccc(NC(=O)C3=C(C(=O)O)CCC3)c(F)c2)c1 [Vidofludimus] | 0 | 0 | 0 | 6 | 3.9 | 0.1 | 0 | 0 | 0 | 0 | 2.1 | 0.2 |
| CC[C@]1(O)C[C@@H]2CN(CCc3c([nH]c4ccccc34)[C@@](C(=O)OC)(c3cc4c(cc3OC)N(C)[C@H]3[C@@](O)(C(=O)OC)[C@H](OC(C)=O)[C@]5(CC)C=CCN6CC[C@]43[C@@H]65)C2)C1 [Vinblastine] | 22.4 | 1.1 | 2.3 | 13.8 | 12.3 | 3.7 | 4.4 | 18.5 | 9.1 | 3 | 8.6 | 5.3 |
| CC[C@]1(O)C[C@H]2CN(CCc3c([nH]c4ccccc34)[C@@](C(=O)OC)(c3cc4c(cc3OC)N(C=O)[C@H]3[C@@](O)(C(=O)OC)[C@H](OC(C)=O)[C@]5(CC)C=CCN6CC[C@]43[C@@H]65)C2)C1 [Vincristine] | 21.3 | 1.9 | 3.3 | 16.3 | 17.7 | 2.7 | 3.1 | 16.9 | 6.6 | 4.5 | 8.9 | 5.9 |
| CC[C@]12C=CCN3CC[C@@]4(c5cc([C@@]6(C(=O)OC)C[C@@H]7C[C@@H](C(C)(F)F)CN(Cc8c6[nH]c6ccccc86)C7)c(OC)cc5N(C)[C@H]4[C@@](O)(C(=O)OC)[C@@H]1OC(C)=O)[C@@H]32 [Vinflunine] | 4.3 | 0.7 | 1.3 | 3.6 | 3.6 | 2.4 | 1.9 | 3.3 | 2.1 | 3.4 | 4.1 | 1.8 |
| CCC1=C[C@@H]2CN(C1)Cc1c([nH]c3ccccc13)[C@@](C(=O)OC)(c1cc3c(cc1OC)N(C)[C@H]1[C@@](O)(C(=O)OC)[C@H](OC(C)=O)[C@]4(CC)C=CCN5CC[C@]31[C@@H]54)C2 [Vinorelbine] | 16.4 | 8.1 | 8.9 | 30.2 | 32.1 | 9.7 | 12.6 | 26.5 | 12.7 | 19.5 | 27.6 | 19.9 |
| CS(=O)(=O)c1ccc(C(=O)Nc2ccc(Cl)c(-c3ccccn3)c2)c(Cl)c1 [Vismodegib] | 0 | 0 | 0 | 3.8 | 0 | 0 | 0.1 | 0.1 | 0 | 0.1 | 0 | 0 |
| CNC(=O)c1cccc(-c2ccc3c(N4CCOC[C@@H]4C)nc(N4CCOC[C@@H]4C)nc3n2)c1 [Vistusertib] | 10.2 | 10 | 2.8 | 14.5 | 10.3 | 7.7 | 11.5 | 15.1 | 11.5 | 13.3 | 10.2 | 15.4 |
| CC[C@@H]1C(=O)N(C)c2cnc(Nc3ccc(C(=O)N[C@H]4CC[C@H](N5CCN(CC6CC6)CC5)CC4)cc3OC)nc2N1C(C)C [Volasertib] | 13.1 | 4.1 | 3.2 | 9.7 | 6.3 | 7.1 | 7.3 | 11.5 | 4.4 | 12.2 | 15.5 | 10.4 |
| O=C(CCCCCCC(=O)Nc1ccccc1)NO [Vorinostat] | 8.6 | 4.3 | 3.2 | 15.9 | 10.7 | 5.3 | 4.7 | 8 | 4.7 | 10.8 | 9.7 | 2.7 |
| Oc1nc(-c2ccc(C(F)(F)F)cc2)nc2c1CSCC2 [XAV-939] | 0 | 0 | 0 | 0 | 0 | 0.1 | 1.5 | 0 | 3.6 | 0 | 0 | 2.3 |
| FC(F)c1nc2ccccc2n1-c1nc(N2CCOCC2)nc(N2CCOCC2)n1 [ZSTK474] | 8 | 7.8 | 4.4 | 8.8 | 10.6 | 4 | 17.4 | 5.7 | 7.7 | 11 | 8.9 | 10.6 |
